Earlier results on two compounds are cited in patent US20110223312A1, “TRIGLYCERIDE-ENCAPSULATED PHYTOSTEROL MICROPARTICLES DISPERSED IN BEVERAGES” (priority 2009, published 2011).

This data set concerns plasma cholesterol.

As to `CC[C@H](CC[C@@H](C)[C@H]1CC[C@H]2[C@@H]3CC=C4C[C@@H](O)CC[C@]4(C)[C@H]3CC[C@]12C)C(C)C` [beta sitosterol], under “12-18 g per day in divided doses, males with atherosclerosis (Faquhar et al. 1956)”, the “lowering of serum cholesterol” value is 15-20%.

Regarding `CC[C@H](CC[C@@H](C)[C@H]1CC[C@H]2[C@@H]3CC=C4C[C@@H](O)CC[C@]4(C)[C@H]3CC[C@]12C)C(C)C` [sitosterol], for the setting “9-18 grams of sitosterol per day, coarse powdered form, two earlier human studies”, the “decrease of the plasma cholesterol level” value is on record as “approximately 15%”.
